In ChEMBL document CHEMBL2440050 (ACS Med Chem Lett, 2013):
pIC50: −log10 of the molar value. One block for each molecule: values may come before it.

How the values were obtained:
[1] = tested on: NCI-H520; test: Growth inhibition of human NCI-H520 cells after 72 hrs by MTS assay; type: functional, cell-based; conditions: NCI-H520, 72 h
[2] = tested on: HCT-116; test: Growth inhibition of vinblastine-sensitive human HCT116 cells after 72 hrs by phosphatase assay; type: functional, cell-based; conditions: HCT-116, 72 h
[3] = tested on: MCF7; test: Growth inhibition of human MCF7 cells after 72 hrs by MTS assay; type: functional, cell-based; conditions: MCF7, 72 h
[4] = tested on: NCI-H520; test: Ratio of vinblastine IC50 to compound IC50 for human NCI-H520 cells by MTS assay; type: functional
[5] = tested on: ZR-75-1; test: Growth inhibition of human ZR-75-1 cells after 72 hrs by MTS assay; type: functional, cell-based; conditions: ZR-75-1, 72 h
[6] = tested on: HCT-116/VM46; test: Ratio of vinblastine IC50 to compound IC50 for vinblastine-resistant human HCT116/VM46 cells overexpressing P-gp by MTS assay; type: functional
[7] = tested on: HCT-116; test: Growth inhibition of vinblastine-sensitive human HCT116 cells after 72 hrs by MTS assay; type: functional, cell-based; conditions: HCT-116, 72 h
[8] = tested on: HCC70; test: Ratio of vinblastine IC50 to compound IC50 for human HCC70 cells by MTS assay; type: functional
[9] = tested on: HCC1143; test: Ratio of vinblastine IC50 to compound IC50 for human HCC1143 cells by MTS assay; type: functional
[10] = tested on: HCT-116/VM46; test: Growth inhibition of vinblastine-resistant human HCT116/VM46 cells overexpressing P-gp after 72 hrs by phosphatase assay; type: functional, cell-based; conditions: HCT-116/VM46, 72 h
[11] = tested on: HCC1143; test: Growth inhibition of human HCC1143 cells after 72 hrs by MTS assay; type: functional, cell-based; conditions: HCC1143, 72 h
[12] = tested on: HCT-116; test: Ratio of vinblastine IC50 to compound IC50 for vinblastine-sensitive human HCT116 cells by MTS assay; type: functional
[13] = Growth inhibition of human KPL4 cells after 72 hrs by MTS assay; type: functional, cell-based; conditions: KPL4, 72 h
[14] = tested on: L1210; test: Ratio of vinblastine IC50 to compound IC50 for mouse L1210 cells by phosphatase assay; type: functional
[15] = tested on: HCT-116/VM46; test: Growth inhibition of vinblastine-resistant human HCT116/VM46 cells overexpressing P-gp after 72 hrs by MTS assay; type: functional, cell-based; conditions: HCT-116/VM46, 72 h
[16] = Growth inhibition of human SW403 cells after 72 hrs by MTS assay; type: functional, cell-based; conditions: SW-403, 72 h
[17] = tested on: T47D; test: Growth inhibition of human T47D cells after 72 hrs by MTS assay; type: functional, cell-based
[18] = Ratio of vinblastine IC50 to compound IC50 for human SW403 cells by MTS assay; type: functional
[19] = tested on: ZR-75-1; test: Ratio of vinblastine IC50 to compound IC50 for human ZR-75-1 cells by MTS assay; type: functional
[20] = tested on: PA-1; test: Growth inhibition of human PA1 cells after 72 hrs by MTS assay; type: functional, cell-based; conditions: PA-1, 72 h
[21] = tested on: AU565; test: Growth inhibition of human AU565 cells after 72 hrs by MTS assay; type: functional, cell-based; conditions: AU565, 72 h
[22] = tested on: MDA-MB-468; test: Growth inhibition of human MDA-MB-468 cells after 72 hrs by MTS assay; type: functional, cell-based; conditions: MDA-MB-468, 72 h
[23] = Growth inhibition of human LS 174T cells after 72 hrs by MTS assay; type: functional, cell-based; conditions: LS174T
[24] = tested on: L1210; test: Growth inhibition of mouse L1210 cells after 72 hrs by phosphatase assay; type: functional, cell-based; conditions: L1210, 72 h
[25] = Ratio of vinblastine IC50 to compound IC50 for human LNCaP-FGC cells by MTS assay; type: functional
[26] = tested on: HCT-116; test: Ratio of vinblastine IC50 to compound IC50 for vinblastine-sensitive human HCT116 cells by phosphatase assay; type: functional
[27] = tested on: PA-1; test: Ratio of vinblastine IC50 to compound IC50 for human PA1 cells by MTS assay; type: functional
[28] = Growth inhibition of human LNCaP-FGC cells after 72 hrs by MTS assay; type: functional, cell-based; conditions: LNCaP-Clone-FGC
[29] = tested on: LS174T; test: Ratio of vinblastine IC50 to compound IC50 for human LS 174T cells by MTS assay; type: functional
[30] = tested on: MDA-MB-468; test: Ratio of vinblastine IC50 to compound IC50 for human MDA-MB-468 cells by MTS assay; type: functional
[31] = tested on: HCT-116; test: Ratio of IC50 for vinblastine-resistant human HCT116/VM46 cells overexpressing P-gp to IC50 for vinblastine-sensitive human HCT116 cells by phosphatase assay; type: functional
[32] = tested on: AU565; test: Ratio of vinblastine IC50 to compound IC50 for human AU565 cells by MTS assay; type: functional
[33] = Ratio of vinblastine IC50 to compound IC50 for human KPL4 cells by MTS assay; type: functional
[34] = tested on: T47D; test: Ratio of vinblastine IC50 to compound IC50 for human T47D cells by MTS assay; type: functional
[35] = tested on: HCC70; test: Growth inhibition of human HCC70 cells after 72 hrs by MTS assay; type: functional, cell-based; conditions: HCC70, 72 h
[36] = tested on: HCT-116/VM46; test: Ratio of vinblastine IC50 to compound IC50 for vinblastine-resistant human HCT116/VM46 cells overexpressing P-gp by phosphatase assay; type: functional

Structure (SMILES): CC[C@]1(NC(=O)N2CCc3ccccc3C2)C[C@H]2CN(CCc3c([nH]c4ccccc34)[C@@](C(=O)OC)(c3cc4c(cc3OC)N(C)[C@H]3[C@@](O)(C(=O)OC)[C@H](OC(C)=O)[C@]5(CC)C=CCN6CC[C@]43[C@@H]65)C2)C1
pIC50 [1]: 9.85
pIC50 [2]: 9.25
pIC50 [3]: 8.68
Ratio IC50 [4]: 10
pIC50 [5]: 9.28
Ratio IC50 [6]: 10
pIC50 [7]: 9.59
Ratio IC50 [8]: 10
Ratio IC50 [9]: 10
pIC50 [10]: 8.06
pIC50 [11]: 9.80
Ratio IC50 [12]: 10
pIC50 [13]: 10.22
Ratio IC50 [14]: 10
pIC50 [15]: 8.18
pIC50 [16]: 8.92
pIC50 [17]: 9.26
Ratio IC50 [18]: 10
Ratio IC50 [19]: 10
pIC50 [20]: 9.72
pIC50 [21]: 9.89
pIC50 [22]: 9.92
pIC50 [23]: 9.52
pIC50 [24]: 9.21
Ratio IC50 [25]: 10
Ratio IC50 [26]: 10
Ratio IC50 [27]: 10
pIC50 [28]: 10.70
Ratio IC50 [29]: 10
Ratio IC50 [30]: 10
Ratio IC50 [31]: 13
Ratio IC50 [32]: 10
Ratio IC50 [33]: 10
Ratio IC50 [34]: 10
pIC50 [35]: 9.89
Ratio IC50 [36]: 80

Structure (SMILES): CC[C@]1(NC(=O)N2CCN(C)CC2)C[C@H]2CN(CCc3c([nH]c4ccccc34)[C@@](C(=O)OC)(c3cc4c(cc3OC)N(C)[C@H]3[C@@](O)(C(=O)OC)[C@H](OC(C)=O)[C@]5(CC)C=CCN6CC[C@]43[C@@H]65)C2)C1
pIC50 [2]: 8.47
pIC50 [10]: 6.15
pIC50 [24]: 8.11

Structure (SMILES): CC[C@]1(NC(=O)N2CCCCC2)C[C@H]2CN(CCc3c([nH]c4ccccc34)[C@@](C(=O)OC)(c3cc4c(cc3OC)N(C)[C@H]3[C@@](O)(C(=O)OC)[C@H](OC(C)=O)[C@]5(CC)C=CCN6CC[C@]43[C@@H]65)C2)C1
pIC50 [24]: 8.26

Continued by rising pIC50 [24], values first:

pIC50 [24]: 7.40
Structure (SMILES): CC[C@]1(NC(N)=O)C[C@H]2CN(CCc3c([nH]c4ccccc34)[C@@](C(=O)OC)(c3cc4c(cc3OC)N(C)[C@H]3[C@@](O)(C(=O)OC)[C@H](OC(C)=O)[C@]5(CC)C=CCN6CC[C@]43[C@@H]65)C2)C1

pIC50 [24]: 8.23
Structure (SMILES): CC[C@]1(NC(=O)NC)C[C@H]2CN(CCc3c([nH]c4ccccc34)[C@@](C(=O)OC)(c3cc4c(cc3OC)N(C)[C@H]3[C@@](O)(C(=O)OC)[C@H](OC(C)=O)[C@]5(CC)C=CCN6CC[C@]43[C@@H]65)C2)C1

pIC50 [24]: 8.28
Structure (SMILES): CC[C@]1(NC(=O)N2CCOCC2)C[C@H]2CN(CCc3c([nH]c4ccccc34)[C@@](C(=O)OC)(c3cc4c(cc3OC)N(C)[C@H]3[C@@](O)(C(=O)OC)[C@H](OC(C)=O)[C@]5(CC)C=CCN6CC[C@]43[C@@H]65)C2)C1
